Measured values taken from patent publication US10889546B2, “Alkynyl pyridine prolyl hydroxylase inhibitor, and preparation method and medical use thereof” (Jiangsu Hengrui Medicine Co., Ltd., priority 2015, dated 2021).

Experiments:
[1] = system: VEGF; test: VEGF expression at the cellular level (VEGF kit); type: cell-based; conditions: Hep3B human hepatoma cell, 24 h after administration
Description: (§1) The test of the activity of some compounds of the present invention on VEGF at the cellular level and EPO at the cellular level is shown as follows. The method is in accordance with Bioorganic & Medicinal Chemistry Letters 23 (2013) 5953-5957, and the test was carried out by using VEGF and EPO kit respectively 24 h after administration.
(§2) Hep3B Cell: Human Hepatoma Cell

[2] = system: EPO; test: EPO expression at the cellular level (EPO kit); type: cell-based; conditions: Hep3B human hepatoma cell, 24 h after administration
Description: as §1, §2

[3] = target: Prolyl hydroxylase 2 (Homo sapiens (Human), UniProt Q9GZT9); test: Prolyl hydroxylase 2 inhibition, fluorescence polarization method; type: biochemical; conditions: fluorescence polarization, read 1 h after adding the drugs; read-out: Prolyl hydroxylase 2 (IC50 nM)
Chain of Prolyl hydroxylase 2 (Q9GZT9 whole entry): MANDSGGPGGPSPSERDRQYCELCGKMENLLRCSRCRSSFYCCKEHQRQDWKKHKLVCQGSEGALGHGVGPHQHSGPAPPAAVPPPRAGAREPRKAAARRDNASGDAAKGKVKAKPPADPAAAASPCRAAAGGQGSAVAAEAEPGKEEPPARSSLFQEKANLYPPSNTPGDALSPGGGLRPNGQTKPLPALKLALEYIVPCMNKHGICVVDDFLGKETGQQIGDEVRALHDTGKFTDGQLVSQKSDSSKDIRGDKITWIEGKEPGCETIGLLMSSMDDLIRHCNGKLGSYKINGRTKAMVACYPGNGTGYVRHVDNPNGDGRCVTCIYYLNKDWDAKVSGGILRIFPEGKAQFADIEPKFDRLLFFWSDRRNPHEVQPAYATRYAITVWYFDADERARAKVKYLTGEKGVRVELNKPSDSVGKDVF

| IC50 [3] [nM] | Structure (SMILES) | Whether it can increase the expression of VEGF in cells [1] | Whether it can increase the expression of EPO in cells [2] |
| --- | --- | --- | --- |
| – | O=C(O)CNC(=O)c1ncc(C#CCOc2cccc(OC3CC3)c2)cc1O [Example 41, 2-(3-Hydroxy-5-(3-m-cyclopropoxyphenoxypropyn-1-yl))picolinamido acetic acid] | Yes | Yes |
| – | CC(C)OC(=O)CNC(=O)c1ncc(C#CCOc2ccc(C#N)cc2)cc1O [Example 30, Isopropyl 2-(3-hydroxy-5-(3-p-cyanophenoxypropyn-1-yl))picolinamido acetate] | Yes | Yes |
| 70.4 ± 0.6 | Cc1ccccc1OCC#Cc1cnc(C(=O)NCC(=O)O)c(O)c1 [Example 35] | Yes | Yes |
| – | CC(=O)Nc1ccc(C#Cc2cnc(C(=O)NCC(=O)O)c(O)c2)cc1 [Example 22, 2-(3-Hydroxy-5-p-acetamidophenylethynyl)picolinamido acetic acid] | Yes | Yes |
| – | CC(C)(C)Oc1cccc(OCC#Cc2cnc(C(=O)NCC(=O)O)c(O)c2)c1 [Example 40, 2-(3-Hydroxy-5-(3-m-tert-butoxyphenoxypropyn-1-yl))picolinamido acetic acid] | Yes | Yes |
| – | COc1cccc(C#Cc2cnc(C(=O)NCC(=O)O)c(O)c2)c1 [Example 17, 2-(3-Hydroxy-5-m-methoxyphenylethynyl)picolinamido acetic acid] | Yes | Yes |
| – | Cc1nc(C(=O)NCC(=O)O)c(O)cc1C#CCOc1ccc(C2CC2)cc1 [Example 63, 2-(3-Hydroxy-5-(3-p-cyclopropylphenoxypropyn-1-yl)-6-methyl)picolinamido acetic acid] | – | Yes |
| – | O=C(O)CNC(=O)c1ncc(C#CCOc2ccc3ccccc3c2)cc1O [Example 58, 2-(3-Hydroxy-5-(3-(naphthalen-2-oxy)propyn-1-yl))picolinamido acetic acid] | Yes | Yes |
| 820 ± 10.9 | O=C(O)CNC(=O)c1ncc(C#Cc2ccccc2)cc1O [Example 5, 2-(3-Hydroxy-5-phenylethynyl)picolinamido acetic acid] | Yes | Yes |
| – | O=C(O)CNC(=O)c1ncc(C#CCOc2cccc(Cl)c2Cl)cc1O [Example 61, 2-(3-Hydroxy-5-(3-(2,3-dichlorophenyl)oxypropyn-1-yl))picolinamido acetic acid] | Yes | Yes |
| – | COc1ccc(OCC#Cc2cnc(C(=O)NCC(=O)O)c(O)c2)cc1 [Example 39, 2-(3-Hydroxy-5-(3-p-methoxyphenoxypropyn-1-yl))picolinamido acetic acid] | Yes | Yes |
| 540 ± 3.6 | O=C(O)CNC(=O)c1ncc(C#CCOc2ccc(-c3ccccc3)cc2)cc1O [Example 57, 2-(3-Hydroxy-5-(3-p-phenylphenoxypropyn-1-yl))picolinamido acetic acid] | Yes | Yes |
| 515 ± 6.1 | O=C(O)CNC(=O)c1ncc(C#CCOc2ccc(C(F)(F)F)cc2)cc1O [Example 42, 2-(3-Hydroxy-5-(3-p-trifluoromethylphenoxypropyn-1-yl))picolinamido acetic acid] | – | – |
| – | COc1ccc(C#Cc2cc(O)c(C(=O)NCC(=O)O)nc2Cl)cc1 [Example 8, 2-(3-Hydroxy-5-p-methoxyphenylethynyl-6-chloro)picolinamido acetic acid] | Yes | Yes |
| – | O=C(O)CNC(=O)c1ncc(C#CCOc2cccc(Br)c2)cc1O [Example 48, 2-(3-Hydroxy-5-(3-m-bromophenoxypropyn-1-yl))picolinamido acetic acid] | Yes | Yes |
| – | CCCCC(=O)Nc1ccc(C#Cc2cnc(C(=O)NCC(=O)OCC3CC3)c(O)c2)cc1 [Example 24, Cyclopropylmethyl 2-(3-hydroxy-5-p-pentanaminophenylethynyl)picolinamidoacetate] | – | Yes |
| 1220 ± 56 | CC(C)(C)C#Cc1cnc(C(=O)NCC(=O)O)c(O)c1 [Example 3, 2-(3-Hydroxy-5-tert-butylethynyl)picolinamido acetic acid] | Yes | Yes |
| – | Cc1ccc(C#Cc2cc(O)c(C(=O)NCC(=O)O)nc2C)cc1 [Example 7, 2-(3-Hydroxy-5-p-methylphenylethynyl-6-methyl)picolinamido acetic acid] | – | Yes |

| IC50 [3] [nM] | Structure (SMILES) | Whether it can increase the expression of VEGF in cells [1] | Whether it can increase the expression of EPO in cells [2] |
| --- | --- | --- | --- |
| – | N#Cc1cccc(OCC#Cc2cnc(C(=O)NCC(=O)O)c(O)c2)c1 [Example 49, 2-(3-Hydroxy-5-(3-m-cyanophenoxypropyn-1-yl))picolinamido acetic acid] | Yes | Yes |
| – | CC(NC(=O)c1ncc(C#Cc2ccc(C3CC3)cc2)cc1O)C(=O)O (stereo not shown) [Example 9, 2-(3-Hydroxy-5-p-cyclopropylphenylethynylpyridine)carboxamido propionic acid] | Yes | Yes |
| – | N#Cc1ccc(C#Cc2cnc(C(=O)NCC(=O)O)c(O)c2)cc1 [Example 19, 2-(3-Hydroxy-5-p-cyanophenylethynyl)picolinamido acetic acid] | Yes | Yes |
| 834.9 ± 3.2 | O=C(O)CNC(=O)c1ncc(C#CC2CC2)cc1O [Example 4, 2-(3-Hydroxy-5-cyclopropylethynyl)picolinamido acetic acid] | Yes | Yes |
| – | CCc1ccc(OCC#Cc2cnc(C(=O)NCC(=O)OC)c(O)c2)cc1 [Example 29, Methyl 2-(3-hydroxy-5-(3-p-ethylphenoxypropyn-1-yl))picolinamido acetate] | Yes | Yes |
| – | NC(=O)c1ccc(OCC#Cc2cnc(C(=O)NCC(=O)O)c(O)c2)cc1 [Example 52, 2-(3-Hydroxy-5-(3-p-carbamoylphenoxypropyn-1-yl))picolinamido acetic acid] | – | Yes |
| 8130 ± 40.5 | O=C(O)CNC(=O)c1ncc(C#Cc2ccc(-c3ccccc3)cc2)cc1O [Example 18, 2-(3-Hydroxy-5-(biphenyl-4-ylethynyl))picolinamido acetic acid] | – | – |
| – | CN(C)C(=O)c1ccc(C#Cc2cnc(C(=O)NCC(N)=O)c(O)c2)cc1 [Example 23, 2-(3-Hydroxy-5-p-dimethylcarbamoylphenylethynyl)picolinamidoacetamide] | Yes | Yes |
| – | NC(=O)CNC(=O)c1ncc(C#CCOc2ccc(Cl)cc2)cc1O [Example 28] | Yes | Yes |
| – | COc1ccc(C#Cc2cnc(C(=O)NCC(=O)O)c(O)c2)cc1 [Example 16, 2-(3-Hydroxy-5-p-methoxyphenylethynyl)picolinamido acetic acid] | – | Yes |
| – | O=C(O)CNC(=O)c1ncc(C#CCOc2cc(Cl)cc(Cl)c2)cc1O [Example 62, 2-(3-Hydroxy-5-(3-(3,5-dichlorophenyl)oxypropyn-1-yl))picolinamido acetic acid] | Yes | Yes |
| – | CCCCNC(=O)c1ccc(C#Cc2cnc(C(=O)NCC(=O)OC(C)C)c(O)c2)cc1 [Example 25, Isopropyl 2-(3-hydroxy-5-p-butylcarbamoylphenylethynyl)picolinamidoacetate] | Yes | – |
| – | COC(=O)CNC(=O)c1ncc(C#Cc2ccccc2)cc1O [Example 6, Methyl 2-(3-hydroxy-5-phenylethynyl)picolinamido acetate] | Yes | Yes |
| – | N#Cc1ccccc1C#Cc1cnc(C(=O)NCC(=O)O)c(O)c1 [Example 20, 2-(3-Hydroxy-5-o-cyanophenylethynyl)picolinamido acetic acid] | Yes | Yes |
| – | CCc1ccc(NCC#Cc2cnc(C(=O)NCC(=O)O)c(O)c2)cc1 [Example 66, 2-(3-Hydroxy-5-(3-p-ethylanilinopropyn-1-yl))picolinamido acetic acid] | Yes | Yes |
| – | O=C(O)CNC(=O)c1ncc(C#CCOc2ccc(C(=O)N3CCCC3)cc2)cc1O [Example 54, 2-(3-Hydroxy-5-(3-(4-(pyrrolidin-1-carbonyl)phenoxy)propyn-1-yl))picolinamido acetic acid] | Yes | Yes |
| – | O=C(O)CNC(=O)c1nc(Cl)c(C#CCOc2ccc(C(=O)N3CC3)cc2)cc1O [Example 55] | Yes | Yes |
